The nature of series [1]: Cytotoxicity against human HepG2 cells measured after 72 hrs by SRB assay. It counts as functional, cell-based. Conditions: HepG2, 72 h.
Series [2] is described as follows: Cytotoxicity against porcine testicular cells assessed as cell death at 120 to 250 ug/ml. The series is classed as toxicity, cell-based, Sus scrofa. To be noted: pig.
Series [3] concerns the target T1, Hepatocyte growth factor receptor (Homo sapiens, UniProt P08581). The experiment in a line: Inhibition of C-Met in human S114 cells assessed as inhibition of HGF-stimulated autophosphorylation preincubated for 60 mins followed by HGF-stimulation measured after 15 minsby DELFIA method. The series is classed as cell-based.
The target in series [4] is Glycogen synthase kinase-3 beta (Homo sapiens, UniProt P49841). The experiment in a line: Inhibition of GSK-3beta (unknown origin) assessed as inhibition of phosphorylation using Ser/Thr 9 peptide as substrate by FRET-based Z-LYTE assay.
A short description of series [5]: Growth inhibition of human NCI-H522 cells measured after 48 hrs by SRB assay. The series is classed as functional.
Series [6] can be described thus: Growth inhibition of human SR cells measured after 48 hrs by SRB assay. The series is classed as functional.
The nature of series [7]: Growth inhibition of human MDA-MB-468 cells measured after 48 hrs by SRB assay. It counts as functional.
The target in series [8] is Epidermal growth factor receptor (Homo sapiens) (UniProt P00533). Description: Inhibition of EGFR (unknown origin) at 100 uM relative to control.
Series [9] concerns the target T1, Hepatocyte growth factor receptor. The experiment in a line: Inhibition of GST-tagged c-Met (unknown origin) assessed as phosphotyrosine levels preincubated foe 15 mins followed by addition of poly(glutamic acid-tyrosine (4:1)) as substrate and ATP by ELISA.
Series [10] in a line: Cytotoxicity against human HL-60(TB) cells measured after 48 hrs by SRB assay. It counts as functional. To be noted: HL-60, 48 h.
Series [11] in a line: Cytotoxicity against human HOP62 cells measured after 48 hrs by SRB assay. The series is classed as functional. To be noted: HOP-62, 48 h.
Series [12] is described as follows: Cytotoxicity against human MOLT4 cells measured after 48 hrs by SRB assay. It counts as functional. Conditions: MOLT-4, 48 h.
The target in series [13] is T2, Tyrosine-protein phosphatase non-receptor type 11 (Homo sapiens, UniProt Q06124).
T2 sequence (Q06124 whole entry): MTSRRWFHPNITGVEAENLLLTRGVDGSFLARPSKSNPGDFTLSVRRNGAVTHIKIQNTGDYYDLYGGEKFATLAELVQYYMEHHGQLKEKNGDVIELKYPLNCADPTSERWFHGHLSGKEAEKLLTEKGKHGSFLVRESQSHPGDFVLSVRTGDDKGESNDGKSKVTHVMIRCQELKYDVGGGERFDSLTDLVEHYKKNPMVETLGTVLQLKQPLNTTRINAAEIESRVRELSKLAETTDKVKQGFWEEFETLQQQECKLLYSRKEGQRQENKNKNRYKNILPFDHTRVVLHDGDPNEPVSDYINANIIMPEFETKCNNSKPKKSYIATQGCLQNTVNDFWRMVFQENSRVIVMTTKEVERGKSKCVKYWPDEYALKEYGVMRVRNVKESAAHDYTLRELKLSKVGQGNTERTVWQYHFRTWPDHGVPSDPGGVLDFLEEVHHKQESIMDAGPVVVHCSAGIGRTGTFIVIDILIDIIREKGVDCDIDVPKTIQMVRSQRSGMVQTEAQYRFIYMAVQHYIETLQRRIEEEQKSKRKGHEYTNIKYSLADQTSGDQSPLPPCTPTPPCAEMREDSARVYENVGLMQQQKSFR
Description: Inhibition of human GST-tagged Shp2 (205 to 593 residues) expressed Escherichia coli DH5alpha assessed as inhibition of PTP activity using DiFMUP as substrate measured after 30 mins by fluorescence analysis

Series [14] in a line: Antiproliferative activity against human K562 cells measured after 48 hrs by WST1 assay. It counts as functional, cell-based. Conditions: K562, 48 h.
A short description of series [15]: Cytotoxicity against human UO31 cells measured after 48 hrs by SRB assay. The series is classed as functional. To be noted: UO-31, 48 h.
A short description of series [16]: Cytotoxicity against human U251 cells measured after 48 hrs by SRB assay. It counts as functional. Conditions: U-251, 48 h.
Series [17] can be described thus: Cytotoxicity against human […] cells measured after 48 hrs by SRB assay. It counts as functional. To be noted: RXF 393, 48 h.
Series [18] in a line: Cytotoxicity against human KBV1 cells expressing P-glycoprotein measured after 72 hrs by MTT assay. Conditions: KB-V1, 72 h. It counts as functional, cell-based.
Series [19] is described as follows: Cytotoxicity against human KB-3-1 cells measured after 72 hrs by MTT assay. To be noted: KB 3-1, 72 h. It counts as functional, cell-based.
Series [20] can be described thus: Antiproliferative activity against human MCF7 cells measured after 48 hrs by MTT assay. It counts as functional, cell-based. Conditions: MCF7, 48 h.
Series [21] can be described thus: Anticancer activity against human IMR32 cells measured after 48 hrs by MTT assay. The series is classed as functional, cell-based. Conditions: IMR-32, 48 h.
Series [22] is described as follows: Anticancer activity against human HeLa cells measured after 48 hrs by MTT assay. It counts as functional, cell-based.
Series [23] in a line: Antiproliferative activity against mouse L1210 cells. The series is classed as functional, cell-based.
Series [24] in a line: Antiproliferative activity against human MCF7 cells measured after 48 hrs by SRB assay. The series is classed as functional, cell-based. To be noted: MCF7, 48 h.
The test system of another series is HeLa. The experiment in a line: Inhibition of HDAC in human HeLa cell nuclear extract at 30 uM using Fluor de Lys as substrate measured after 10 to 15 mins by fluorimetric assay. It counts as cell-free.

T1 sequence (P08581 whole entry): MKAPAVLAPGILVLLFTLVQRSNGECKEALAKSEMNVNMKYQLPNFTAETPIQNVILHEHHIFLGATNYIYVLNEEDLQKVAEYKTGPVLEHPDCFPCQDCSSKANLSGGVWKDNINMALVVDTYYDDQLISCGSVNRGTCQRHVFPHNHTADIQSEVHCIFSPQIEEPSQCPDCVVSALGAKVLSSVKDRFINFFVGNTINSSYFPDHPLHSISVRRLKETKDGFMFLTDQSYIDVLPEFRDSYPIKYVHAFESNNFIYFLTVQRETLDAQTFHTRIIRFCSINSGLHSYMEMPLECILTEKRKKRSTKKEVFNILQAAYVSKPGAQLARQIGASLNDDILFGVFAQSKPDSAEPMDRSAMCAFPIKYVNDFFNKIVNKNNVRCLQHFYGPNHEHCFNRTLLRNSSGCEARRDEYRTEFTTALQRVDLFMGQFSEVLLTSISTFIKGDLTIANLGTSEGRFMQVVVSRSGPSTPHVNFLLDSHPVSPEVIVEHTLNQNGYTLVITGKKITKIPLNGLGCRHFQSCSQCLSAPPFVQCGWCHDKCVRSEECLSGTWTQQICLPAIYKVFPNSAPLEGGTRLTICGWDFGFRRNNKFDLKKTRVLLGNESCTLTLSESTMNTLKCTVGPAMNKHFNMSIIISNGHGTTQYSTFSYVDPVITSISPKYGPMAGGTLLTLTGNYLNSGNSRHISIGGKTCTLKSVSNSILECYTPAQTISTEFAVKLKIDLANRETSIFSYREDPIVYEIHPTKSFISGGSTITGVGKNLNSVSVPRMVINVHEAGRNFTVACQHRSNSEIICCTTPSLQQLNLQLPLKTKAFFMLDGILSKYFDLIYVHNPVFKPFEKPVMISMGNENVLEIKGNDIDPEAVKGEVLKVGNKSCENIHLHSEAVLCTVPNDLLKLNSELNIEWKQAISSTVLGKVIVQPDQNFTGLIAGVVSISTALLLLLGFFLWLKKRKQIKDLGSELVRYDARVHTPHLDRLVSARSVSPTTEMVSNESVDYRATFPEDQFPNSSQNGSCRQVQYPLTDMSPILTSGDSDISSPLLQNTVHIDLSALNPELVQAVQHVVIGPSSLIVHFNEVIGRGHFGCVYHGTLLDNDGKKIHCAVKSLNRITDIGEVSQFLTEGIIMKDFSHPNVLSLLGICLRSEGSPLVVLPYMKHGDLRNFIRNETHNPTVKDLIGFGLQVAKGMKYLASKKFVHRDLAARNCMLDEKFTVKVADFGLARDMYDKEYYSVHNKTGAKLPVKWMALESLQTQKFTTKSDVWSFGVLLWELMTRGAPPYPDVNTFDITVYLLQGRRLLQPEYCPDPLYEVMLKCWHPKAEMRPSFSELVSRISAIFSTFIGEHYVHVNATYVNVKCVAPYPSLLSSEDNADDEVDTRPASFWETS
Epidermal growth factor receptor (Homo sapiens), sequence (P00533 whole entry): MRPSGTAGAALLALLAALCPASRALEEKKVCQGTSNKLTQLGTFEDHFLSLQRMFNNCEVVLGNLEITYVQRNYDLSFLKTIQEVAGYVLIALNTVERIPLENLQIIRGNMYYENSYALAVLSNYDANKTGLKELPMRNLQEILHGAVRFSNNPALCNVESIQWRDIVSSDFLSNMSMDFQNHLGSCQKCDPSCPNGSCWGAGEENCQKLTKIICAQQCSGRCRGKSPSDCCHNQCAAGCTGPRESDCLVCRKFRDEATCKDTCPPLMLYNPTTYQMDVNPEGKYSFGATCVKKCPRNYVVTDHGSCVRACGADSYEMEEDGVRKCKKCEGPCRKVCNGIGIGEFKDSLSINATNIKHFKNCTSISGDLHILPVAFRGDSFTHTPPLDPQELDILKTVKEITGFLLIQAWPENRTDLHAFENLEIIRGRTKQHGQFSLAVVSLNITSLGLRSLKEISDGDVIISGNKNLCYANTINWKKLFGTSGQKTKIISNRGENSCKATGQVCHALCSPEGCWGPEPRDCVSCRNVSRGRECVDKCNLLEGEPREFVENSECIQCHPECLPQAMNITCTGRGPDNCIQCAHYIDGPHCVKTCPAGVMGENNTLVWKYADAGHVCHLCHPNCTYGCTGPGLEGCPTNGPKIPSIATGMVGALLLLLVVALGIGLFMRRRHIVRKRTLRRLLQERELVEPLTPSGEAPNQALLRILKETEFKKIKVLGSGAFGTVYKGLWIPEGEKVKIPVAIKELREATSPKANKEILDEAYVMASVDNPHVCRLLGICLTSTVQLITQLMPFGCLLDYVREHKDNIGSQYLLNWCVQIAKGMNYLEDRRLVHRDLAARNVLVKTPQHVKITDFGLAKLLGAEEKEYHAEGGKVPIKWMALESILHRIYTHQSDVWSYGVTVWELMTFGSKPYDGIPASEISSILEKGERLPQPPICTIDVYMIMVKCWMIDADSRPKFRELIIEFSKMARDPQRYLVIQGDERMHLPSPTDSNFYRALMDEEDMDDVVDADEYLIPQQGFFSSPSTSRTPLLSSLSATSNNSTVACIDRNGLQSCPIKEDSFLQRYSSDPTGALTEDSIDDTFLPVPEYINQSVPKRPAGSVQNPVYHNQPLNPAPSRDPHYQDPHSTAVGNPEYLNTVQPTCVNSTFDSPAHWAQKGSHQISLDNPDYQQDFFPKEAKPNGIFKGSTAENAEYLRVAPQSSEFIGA
Glycogen synthase kinase-3 beta, sequence (P49841 whole entry): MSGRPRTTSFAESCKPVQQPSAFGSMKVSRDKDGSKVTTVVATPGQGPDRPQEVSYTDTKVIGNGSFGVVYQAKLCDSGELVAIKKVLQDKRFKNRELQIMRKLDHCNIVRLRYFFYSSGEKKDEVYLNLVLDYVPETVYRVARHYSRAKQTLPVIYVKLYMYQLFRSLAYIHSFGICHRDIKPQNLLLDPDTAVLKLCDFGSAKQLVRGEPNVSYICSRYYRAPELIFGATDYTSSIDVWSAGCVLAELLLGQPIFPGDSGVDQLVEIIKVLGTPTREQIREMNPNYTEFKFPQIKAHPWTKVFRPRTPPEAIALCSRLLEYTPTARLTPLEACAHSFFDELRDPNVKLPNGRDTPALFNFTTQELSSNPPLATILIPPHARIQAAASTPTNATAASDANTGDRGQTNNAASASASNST

Regarding `O=C1Nc2ccc(Cl)cc2/C1=N/Nc1nc(-c2ccc3c(c2)OCO3)nc2ccccc12`, in series [1], the IC50 lay in the range of 1000 to 2400 nM.
As for `CN1CCN(CC(=O)N/N=C2\C(=O)Nc3ccc4ccccc4c32)CC1`, the Activity in series [2] turned out to be 100%.
Take `O=C(Cc1ccc2c(c1)CCO2)N/N=C1\CNc2cc(C(=O)NCCN3CCOCC3)cc(Br)c21`: in series [3], the IC50 came out at 0.7 nM.
As for `Cc1cc2c(cc1Br)NC(=O)/C2=N\NC(=O)c1ccccc1O`, the IC50 in series [4] came out at 15800 nM.
In the case of `O=C(CN/N=C1\C(=O)Nc2ccccc21)Nc1nc2ccc(Cl)cc2s1`, the “growth inhibition (GI)” value in series [5] was 27.5%; in series [6], 26.6%; in series [7], 38.1%. The inhibition in [8] is 36.6%.
In the case of `CSc1ccc(CC(=O)N/N=C2\C(=O)Nc3ccccc32)cc1`, the concentration for half-maximal inhibition (IC50) in series [9] is > 20000 nM.
In the case of `O=C(Cc1ccc2c(c1)CCO2)N/N=C1\CNc2cc(C(=O)NCCCCN3CCC[C@H]3CO)cc(Br)c21`, the IC50 in [3] was determined as 0.5 nM.
For the compound `O=C1/C(=N\NC(=S)Nc2ccccc2)c2cc([N+](=O)[O-])ccc2N1CN1CCCCC1`, the GI50 in series [10] is 501 nM; in [11], < 10 nM; in series [12], 661 nM.
For `CS(=O)(=O)c1ccc(CC(=O)N/N=C2\C(=O)Nc3ccccc32)cc1`, the IC50 in series [9] is > 20000 nM.
As for `O=C1Nc2ccc(S(=O)(=O)O)cc2/C1=N/Nc1ccccc1[N+](=O)[O-]`, in series [13], 4990 nM corresponded to half-maximal inhibition (IC50).
For `Cc1nc(-c2ccccc2)ccc1C(=O)N/N=C1\C(=O)Nc2ccc(Br)cc21`, in [14], 25000 nM corresponded to half-maximal inhibition (IC50).
For `O=C(CSc1nc2ccccc2c(=O)n1-c1ccccc1)N/N=C1\C(=O)Nc2ccc(F)cc21`, the GI50 is 209 nM in series [15], 1700 nM in series [16] and 1660 nM in series [17].
In turn, `COc1ccc(NC(=S)N/N=C2\C(=O)Nc3ccccc32)cc1` yielded an IC50 in series [18] of 3300 nM.
As for `O=C1Nc2ccc(OC(F)(F)F)cc2/C1=N/N=C1/C(=O)N(c2ccccc2)c2ccccc21`, the IC50 in series [18] is 4800 nM; in series [19], 7670 nM.
In the case of `O=C(Cc1ccc(O)c(Cl)c1)N/N=C1\C(=O)Nc2c(Cl)ccc(Cl)c21`, the half-maximal inhibitory concentration (IC50) in [9] turned out to be 9 nM.
`O=C(N/N=C1\C(=O)Nc2ccc(Br)cc21)Nc1nc2ccccc2o1`: the figures for the IC50 in series [20], in series [21] and in series [22] were 17900 nM, 13700 nM and 15900 nM, respectively.
As for `O=c1[nH]cc(F)c(=O)[nH]1` [FLUOROURACIL], the GI50 in series [15] is 6760 nM; in series [16] it was 42700 nM; in [17] it was 55000 nM.
The compound `Cc1ccc2c(c1)/C(=N/NC(=O)N/N=C1\C(=O)Nc3ccc(C)cc31)C(=O)N2` gave an IC50 in [23] of 16000 nM.
Regarding `COc1ccc(-c2nc(N/N=C3\C(=O)Nc4ccccc43)c3ccccc3n2)cc1OC`, the IC50 in [1] lay within 1000 to 2400 nM.
As for `O=C(Cc1ccc2c(c1)CCO2)N/N=C1\CNc2cc(C(=O)NCCCCN3CC[C@H](O)C3)cc(Br)c21`, the IC50 in series [3] amounted to 0.7 nM.
As to `O=C1Nc2ccc(F)cc2/C1=N/Nc1nc(-c2ccccc2)nc2ccccc12`, the IC50 in series [1] was in the range of 1000 to 2400 nM.
`Nc1c(C(=O)N/N=C2\C(=O)Nc3ccc([N+](=O)[O-])cc32)cnn1C(=O)c1ccc(-c2nc3ccccc3s2)cc1`: the IC50 in series [24] was determined as 10 nM.
In the series with HeLa, `Cc1[nH]c(/C=N/N=C2\C(=O)Nc3ccc(F)cc32)c(C)c1C(=O)NCCCCCCCC(=O)NO` displayed an inhibition of 98%.
`O=C(Cc1ccc(O)c(F)c1)N/N=C1\C(=O)Nc2c(Cl)ccc(Cl)c21`: the IC50 in series [9] was 9 nM.

Values taken from ChEMBL document CHEMBL3865806, “3-Hydrazinoindolin-2-one derivatives: Chemical classification and investigation of their targets as anticancer agents” (Eur J Med Chem, 2016).
